Results published in US20240294537A1, “SOLID STATE FORMS OF 4-[[4-(4-CHLOROANILINO)FURO[2,3-d]PYRIDAZIN-7-yl]OXYMETHYL]-N-METHYLPYRIDINE-2-CARBOXAMIDE AND SALT THEREOF” (TEVA PHARMACEUTICALS INTERNATIONAL GMBH, priority 2021, published 2024).

Assay: Stability of the solid state form upon exposure to humidity
Assay type: physicochemical
Experimental: Telatinib mono mesylate Form TM2 is stable upon exposure to high humidity. Telatinib mono mesylate is stable when exposed to 20-100% RH at 25° C. for 7 days.

stability upon exposure to high humidity: stable
SMILES: CNC(=O)c1cc(COc2nnc(Nc3ccc(Cl)cc3)c3ccoc23)ccn1.CS(=O)(=O)O [Telatinib mono mesylate Form TM2]
